Experimental data published in the OligoGym collection.
“And” between values parts separate entries of the source, which are not always exact repeats. Identical values can stand only once. After the bases stand the sugars from the 5' end (letter, count) and the backbone: PS all phosphorothioate, else s phosphorothioate and o phosphodiester by linkage. Methylation of C is not given here. e = 2'-O-(2-methoxyethyl) (MOE); k = constrained ethyl (cEt); d = 2'-deoxy (DNA)

Target: SOD1
Conditions: ASO

Question: Which target mRNA inhibition (A431, 0.12 µM) does the source give for “TGTTTAATGTTTATCA (sugars ekddddddddekekee, linkages s1 o1 s8 o3 s2)” here?
Answer: The target mRNA inhibition was 0%.

Question: And the target mRNA inhibition (A431, 0.6 µM)?
Answer: Its target mRNA inhibition is 13%.

Question: What about the target mRNA inhibition (A431, 3 µM) of the same sequence?
Answer: Its target mRNA inhibition is 31%.

Question: And the target mRNA inhibition (A431, 15 µM)?
Answer: Its target mRNA inhibition is 49%.

Question: How did the target mRNA inhibition (A431, 0.12 µM) turn out when “TGTTTAATGTTTATCAGG (sugars e5 d8 e5, linkages s1 o3 s9 o2 s2)” was run?
Answer: Its target mRNA inhibition is 6%.

Question: And the target mRNA inhibition (A431, 0.6 µM)?
Answer: Its target mRNA inhibition is 26%.

Question: What about the target mRNA inhibition (A431, 3 µM) of the same sequence?
Answer: The target mRNA inhibition was 29%.

Question: And the target mRNA inhibition (A431, 15 µM)?
Answer: Its target mRNA inhibition is 33%.

Question: What about the target mRNA inhibition (HepG2, 0.222 µM) of the same sequence?
Answer: The target mRNA inhibition was 14%.

Question: What about the target mRNA inhibition (HepG2, 0.667 µM) of the same sequence?
Answer: The target mRNA inhibition was 39%.

Question: And the target mRNA inhibition (HepG2, 2 µM)?
Answer: The target mRNA inhibition was 59%.

Question: And the target mRNA inhibition (HepG2, 6 µM)?
Answer: Its target mRNA inhibition is 77%.

Question: Which results are given for “TGTTTATCAGGATACAT (sugars e2 k2 d9 k2 e2, PS)”?
Answer: target mRNA inhibition (HepG2, 0.1875 µM): 37%; target mRNA inhibition (HepG2, 0.75 µM): 63%; target mRNA inhibition (HepG2, 3 µM): 83%; target mRNA inhibition (HepG2, 4 µM): 83%; target mRNA inhibition (HepG2, 12 µM): 95%

Question: “TGTTTATTGGGCGATCC (sugars e2 k2 d9 k2 e2, PS)” was tested. Which target mRNA inhibition (HepG2, 4 µM) did it give?
Answer: The target mRNA inhibition was 47%.

Question: With “TTAAGATTACAGTGTTT (sugars e3 k2 d7 k2 e3, PS)” as the sequence, how does the target mRNA inhibition (HepG2, 3 µM) read?
Answer: The target mRNA inhibition was 54%.

Question: How did the target mRNA inhibition (A431, 0.12 µM) turn out when “TTAATGTTTATCAGGA (sugars kekeddddddddekek, linkages s1 o3 s8 o1 s2)” was run?
Answer: The target mRNA inhibition was 3%.

Question: What about the target mRNA inhibition (A431, 0.6 µM) of the same sequence?
Answer: The target mRNA inhibition was 45%.

Question: And the target mRNA inhibition (A431, 3 µM)?
Answer: Its target mRNA inhibition is 65%.

Question: And the target mRNA inhibition (A431, 15 µM)?
Answer: The target mRNA inhibition was 81%.

Question: What about the target mRNA inhibition (HepG2, 0.222 µM) of the same sequence?
Answer: Its target mRNA inhibition is 53%.

Question: What about the target mRNA inhibition (HepG2, 0.667 µM) of the same sequence?
Answer: The target mRNA inhibition was 82%.

Question: What about the target mRNA inhibition (HepG2, 2 µM) of the same sequence?
Answer: Its target mRNA inhibition is 91%.

Question: And the target mRNA inhibition (HepG2, 6 µM)?
Answer: Its target mRNA inhibition is 96%.

Question: Which results are given for “TTAATGTTTATCAGGAT (sugars e4 d8 k2 e3, linkages s1 o2 s9 o2 s2)”?
Answer: target mRNA inhibition (A431, 0.062 µM): 26%; target mRNA inhibition (A431, 0.185 µM): 30%; target mRNA inhibition (A431, 0.556 µM): 58%; target mRNA inhibition (A431, 0.6 µM): 50%; target mRNA inhibition (A431, 1.667 µM): 64%; target mRNA inhibition (A431, 5 µM): 68%; target mRNA inhibition (A431, 15 µM): 78%; target mRNA inhibition (SH-SY5Y, 0.062 µM): 11%; target mRNA inhibition (SH-SY5Y, 0.185 µM): 44%; target mRNA inhibition (SH-SY5Y, 0.556 µM): 53%; target mRNA inhibition (SH-SY5Y, 1.667 µM): 75%; target mRNA inhibition (SH-SY5Y, 5 µM): 77%; target mRNA inhibition (SH-SY5Y, 15 µM): 93%

Question: Which target mRNA inhibition (HepG2, 4 µM) does the source give for “TTATCAGGATACATTTC (sugars e2 k2 d8 k2 e3, PS)” here?
Answer: Its target mRNA inhibition is 57%.

Question: “TTATCAGGATACATTTC (sugars e2 k2 d9 k2 e2, PS)” was tested. Which target mRNA inhibition (HepG2, 4 µM) did it give?
Answer: Its target mRNA inhibition is 67%.

Question: Which target mRNA inhibition (HepG2, 3 µM) does the source give for “TTATTCACAGGCTTGAA (sugars e3 k2 d7 k2 e3, PS)” here?
Answer: The target mRNA inhibition was 10%.

Question: With “TTCACAGGCTTGAATGA (sugars e2 k2 d9 k2 e2, PS)” as the sequence, how does the target mRNA inhibition (HepG2, 5 µM) read?
Answer: The target mRNA inhibition was 16%.

Question: Which target mRNA inhibition (HepG2, 3 µM) does the source give for “TTCACTGGTCCATTACT (sugars e3 k2 d7 k2 e3, PS)” here?
Answer: The target mRNA inhibition was 14%.

Question: For “TTCAGTCAGTCCTTTAATGC (sugars e5 d10 e5, PS)”, which target mRNA inhibition (HepG2, 5 µM) is on record?
Answer: The target mRNA inhibition was 24% and 21%.

Question: For “TTCCACCTTTGCCCAAG (sugars e3 k2 d7 k2 e3, PS)”, which target mRNA inhibition (HepG2, 3 µM) is on record?
Answer: The target mRNA inhibition was 87%.

Question: Which target mRNA inhibition (HepG2, 3 µM) does the source give for “TTCCCCACACCTTCACT (sugars e3 k2 d7 k2 e3, PS)” here?
Answer: The target mRNA inhibition was 8%.

Question: How did the target mRNA inhibition (HepG2, 3 µM) turn out when “TTCCTTCTGCTCGAAAT (sugars e3 k2 d7 k2 e3, PS)” was run?
Answer: The target mRNA inhibition was 13%.

Question: Which target mRNA inhibition (HepG2, 0.1875 µM) does the source give for “TTCTACAGCTAGCAGGA (sugars e2 k2 d9 k2 e2, PS)” here?
Answer: The target mRNA inhibition was 10%.

Question: And the target mRNA inhibition (HepG2, 0.75 µM)?
Answer: The target mRNA inhibition was 57%.

Question: And the target mRNA inhibition (HepG2, 3 µM)?
Answer: Its target mRNA inhibition is 84%.

Question: And the target mRNA inhibition (HepG2, 4 µM)?
Answer: The target mRNA inhibition was 79%.

Question: And the target mRNA inhibition (HepG2, 12 µM)?
Answer: The target mRNA inhibition was 94%.

Question: Which target mRNA inhibition (HepG2, 5 µM) does the source give for “TTCTCACTACAGGTACTTTA (sugars e5 d10 e5, PS)” here?
Answer: Its target mRNA inhibition is 28%.

Question: “TTGGATTCTTTTAATAG (sugars e3 k2 d7 k2 e3, PS)” was tested. Which target mRNA inhibition (HepG2, 3 µM) did it give?
Answer: Its target mRNA inhibition is 8%.

Question: For “TTGGGCGATCCCAATTA (sugars e2 k2 d9 k2 e2, PS)”, which target mRNA inhibition (HepG2, 4 µM) is on record?
Answer: The target mRNA inhibition was 5%.

Question: For “TTGGGCGATCCCAATTA (sugars e3 k2 d7 k2 e3, PS)”, which target mRNA inhibition (HepG2, 3 µM) is on record?
Answer: Its target mRNA inhibition is 26%.

Question: Which target mRNA inhibition (HepG2, 4 µM) does the source give for “TTTAATGCTTCCCCACACCT (sugars e5 d10 e5, PS)” here?
Answer: Its target mRNA inhibition is 15%.
